Experimental findings from PubChem BioAssay AID256 (DTP/NCI, 2004) are described below.

The test system of this assay is CD2F1 mice, L1210 leukemia ip, survival T/C. Kind of assay: NCI In Vivo Anticancer Drug Screen. Data for tumor model L1210 Leukemia (intraperitoneal) in CD2F1 (CDF1) mice. The following applies: higher = longer survival. The method, boiled down:
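Ratio T/C, where T is the treated-group value and C the vehicle-dosed control value, from mice implanted with a transplantable tumor.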

Where [1] appears, read: endpoint: mean survival time, dose: 50.0 mg/kg/injection, schedule: Q01DX009 (ip), vehicle: saline with Tween-80.
Setting [2] is: endpoint: mean survival time, dose: 100.0 mg/kg/injection, schedule: Q04DX003 (ip), vehicle: saline with Tween-80.
Where [3] appears, read: endpoint: mean survival time, dose: 200.0 mg/kg/injection, schedule: Q04DX003 (ip), vehicle: saline with Tween-80.
Setting [4] is: endpoint: mean survival time, dose: 400.0 mg/kg/injection, schedule: Q04DX003 (ip), vehicle: saline with Tween-80.

Several values for one entry are separate records, joined by “and”; a condition that tells them apart may be missing. Equal values may be shown once. Toxic doses and inconclusive results are not listed.

With `CN1CCC(O)(O)C(Br)C1` (configuration not stated), the T/C runs as follows: (endpoint: mean survival time, dose: 18.8 mg/kg/injection, schedule: Q01DX009 (ip), vehicle: saline) 98 % of control; (endpoint: mean survival time, dose: 18.8 mg/kg/injection, schedule: Q04DX003 (ip), vehicle: saline) 102 % of control; (endpoint: mean survival time, dose: 37.5 mg/kg/injection, schedule: Q01DX009 (ip), vehicle: saline) 100 % of control; (endpoint: mean survival time, dose: 37.5 mg/kg/injection, schedule: Q04DX003 (ip), vehicle: saline) 106 % of control; (endpoint: mean survival time, dose: 75.0 mg/kg/injection, schedule: Q01DX001 (ip), vehicle: saline) 102 % of control; (endpoint: mean survival time, dose: 75.0 mg/kg/injection, schedule: Q01DX009 (ip), vehicle: saline) 88 % of control. In addition, for the setting “endpoint: mean survival time, dose: 75.0 mg/kg/injection, schedule: Q04DX003 (ip), vehicle: saline”, the T/C was 100 % of control.
In the case of `COC1=C(NC(C)=O)C(=O)c2nc(-c3nc(C(=O)O)c(C)c(-c4ccc(OC)c(OC)c4O)c3N)ccc2C1=O`, the T/C by setting is: (endpoint: median survival time, dose: 6.25 mg/kg/injection, schedule: Q01DX009 (ip), vehicle: Klucel (hydroxypropylcellulose) (HPC)) 106 % of control; (endpoint: median survival time, dose: 12.5 mg/kg/injection, schedule: Q01DX009 (ip), vehicle: Klucel (hydroxypropylcellulose) (HPC)) 108 % of control; (endpoint: median survival time, dose: 25.0 mg/kg/injection, schedule: Q01DX009 (ip), vehicle: Klucel (hydroxypropylcellulose) (HPC)) 104 % of control; (endpoint: median survival time, dose: 50.0 mg/kg/injection, schedule: Q01DX009 (ip), vehicle: Klucel (hydroxypropylcellulose) (HPC)) 107 % of control; (endpoint: median survival time, dose: 100.0 mg/kg/injection, schedule: Q01DX009 (ip), vehicle: Klucel (hydroxypropylcellulose) (HPC)) 109 % of control; (endpoint: median survival time, dose: 200.0 mg/kg/injection, schedule: Q01DX009 (ip), vehicle: Klucel (hydroxypropylcellulose) (HPC)) 109 % of control.
Turning to `O=C(C=C(C(F)(F)F)C(F)(F)F)c1cccc(C(F)(F)F)c1`, the T/C by setting is: (endpoint: mean survival time, dose: 25.0 mg/kg/injection, schedule: Q04DX003 (ip), vehicle: saline with Tween-80) 106 % of control; (endpoint: mean survival time, dose: 50.0 mg/kg/injection, schedule: Q04DX003 (ip), vehicle: saline with Tween-80) 106 % of control.
As for `O=C(Nc1ccc2ccccc2c1-c1c(NC(=O)c2ccccc2)ccc2ccccc12)c1ccccc1`, the T/C is 91 % of control (endpoint: mean survival time, dose: 100.0 mg/kg/injection, schedule: Q01DX001 (ip), vehicle: saline with Tween-80) and 91 % of control (endpoint: mean survival time, dose: 400.0 mg/kg/injection, schedule: Q01DX001 (ip), vehicle: saline with Tween-80).
Turning to `CC(Br)C1(c2cccc([N+](=O)[O-])c2)OCCO1` (configuration not stated), the T/C is 96 % of control (endpoint: mean survival time, dose: 12.0 mg/kg/injection, schedule: Q01DX009 (ip), vehicle: saline); 112 % of control (endpoint: mean survival time, dose: 25.0 mg/kg/injection, schedule: Q01DX009 (ip), vehicle: saline); 106 % of control (endpoint: mean survival time, dose: 50.0 mg/kg/injection, schedule: Q01DX009 (ip), vehicle: saline).
Take `Nc1ccc(SCCCc2c(N)nc(N)nc2N)cc1`: the T/C by setting is: (endpoint: mean survival time, dose: 100.0 mg/kg/injection, schedule: Q01DX001 (ip), vehicle: other) 100 % of control; (endpoint: mean survival time, dose: 200.0 mg/kg/injection, schedule: Q01DX001 (ip), vehicle: other) 96 % of control.
In the case of `CO[C@@]12[C@@H]3N[C@@H]3CN1C1=C(C(=O)C(NCCc3ccccn3)=C(C)C1=O)[C@@H]2COC(N)=O`, the T/C reads like this: (endpoint: median survival time, dose: 3.12 mg/kg/injection, schedule: Q01DX001 (ip), vehicle: saline with Tween-80) 93 % of control; (endpoint: median survival time, dose: 3.13 mg/kg/injection, schedule: Q01DX005 (ip), vehicle: saline with Tween-80) 153 % of control; (endpoint: median survival time, dose: 6.25 mg/kg/injection, schedule: Q01DX001 (ip), vehicle: saline with Tween-80) 111 % of control; (endpoint: median survival time, dose: 6.25 mg/kg/injection, schedule: Q01DX005 (ip), vehicle: saline with Tween-80) 164 % of control; (endpoint: median survival time, dose: 12.5 mg/kg/injection, schedule: Q01DX001 (ip), vehicle: saline with Tween-80) 120 % of control; (endpoint: median survival time, dose: 12.5 mg/kg/injection, schedule: Q01DX005 (ip), vehicle: saline with Tween-80) 166 % of control. For the same compound, the T/C is 153 % of control (endpoint: median survival time, dose: 18.0 mg/kg/injection, schedule: Q01DX001 (ip), vehicle: saline with Tween-80); 89 % of control (endpoint: median survival time, dose: 25.0 mg/kg/injection, schedule: Q01DX005 (ip), vehicle: saline with Tween-80); 160 % of control (endpoint: median survival time, dose: 30.0 mg/kg/injection, schedule: Q01DX001 (ip), vehicle: saline with Tween-80); 188 % of control and 200 % of control (endpoint: median survival time, dose: 50.0 mg/kg/injection, schedule: Q01DX001 (ip), vehicle: saline with Tween-80); 156 % of control (endpoint: median survival time, dose: 83.32 mg/kg/injection, schedule: Q01DX001 (ip), vehicle: saline with Tween-80); 97 % of control (endpoint: median survival time, dose: 3.12 micrograms/kg/injection, schedule: Q01DX001 (ip), vehicle: saline with Tween-80). Further, the T/C runs as follows: (endpoint: median survival time, dose: 6.25 micrograms/kg/injection, schedule: Q01DX001 (ip), vehicle: saline with Tween-80) 102 % of control; (endpoint: median survival time, dose: 12.5 micrograms/kg/injection, schedule: Q01DX001 (ip), vehicle: saline with Tween-80) 108 % of control; (endpoint: median survival time, dose: 25.0 micrograms/kg/injection, schedule: Q01DX001 (ip), vehicle: saline with Tween-80) 97 % of control; (endpoint: median survival time, dose: 50.0 micrograms/kg/injection, schedule: Q01DX001 (ip), vehicle: saline with Tween-80) 97 % of control; (endpoint: median survival time, dose: 3125.0 micrograms/kg/injection, schedule: Q01DX001 (ip), vehicle: saline with Tween-80) 118 % of control; (endpoint: median survival time, dose: 25000.0 micrograms/kg/injection, schedule: Q01DX001 (ip), vehicle: saline with Tween-80) 153 % of control. For the same compound, the T/C (endpoint: median survival time, dose: 50000.0 micrograms/kg/injection, schedule: Q01DX001 (ip), vehicle: saline with Tween-80) is 322 % of control.
For `Clc1nc2ccccc2c2ccccc12`, the T/C was 97 % of control under setting [1]; 94 % of control (endpoint: mean survival time, dose: 100.0 mg/kg/injection, schedule: Q01DX009 (ip), vehicle: saline with Tween-80); 109 % of control under setting [2]; 92 % of control (endpoint: mean survival time, dose: 200.0 mg/kg/injection, schedule: Q01DX009 (ip), vehicle: saline with Tween-80); 111 % of control under setting [3].
Turning to `OC1CCCCO1` (configuration not stated), the T/C was 100 % of control under setting [2], 103 % of control under setting [3] and 103 % of control under setting [4].
As to `O=C(O)C1CCCCC1C(=O)O.[NH-]C1CCCCC1[NH-].[Pt+2]` (configuration not stated), the T/C (endpoint: mean survival time, dose: 3.13 mg/kg/injection, schedule: Q04DX003 (ip), vehicle: other) was 106 % of control; the T/C (endpoint: mean survival time, dose: 6.25 mg/kg/injection, schedule: Q04DX003 (ip), vehicle: other) is 106 % of control; the T/C (endpoint: mean survival time, dose: 12.5 mg/kg/injection, schedule: Q04DX003 (ip), vehicle: other) was 116 % of control; the T/C (endpoint: mean survival time, dose: 100.0 mg/kg/injection, schedule: Q04DX003 (ip), vehicle: other) is 187 % of control; the T/C (endpoint: mean survival time, dose: 200.0 mg/kg/injection, schedule: Q04DX003 (ip), vehicle: other) was 168 % of control.
`Nc1nc(N)c2ncn(C3CC(CO)C(O)C3O)c2n1` (configuration not stated): the T/C under setting [1] was 89 % of control.
On to `CCOC(=O)c1[nH]c(C2OC(CO)C(O)C2O)nc1O` (configuration not stated), for which the T/C (endpoint: median survival time, dose: 49.9 mg/kg/injection, schedule: Q01DX005 (ip), vehicle: saline) is 96 % of control; the T/C (endpoint: median survival time, dose: 99.7 mg/kg/injection, schedule: Q01DX005 (ip), vehicle: saline) was 98 % of control; the T/C (endpoint: median survival time, dose: 199.3 mg/kg/injection, schedule: Q01DX005 (ip), vehicle: saline) was 96 % of control.
As for `CCCCSC(=N)N`, the T/C reads like this: (endpoint: mean survival time, dose: 25.0 mg/kg/injection, schedule: Q01DX001 (ip), vehicle: saline) 100 % of control; (endpoint: mean survival time, dose: 50.0 mg/kg/injection, schedule: Q01DX001 (ip), vehicle: saline) 105 % of control; (endpoint: mean survival time, dose: 100.0 mg/kg/injection, schedule: Q01DX001 (ip), vehicle: saline) 113 % of control.
As for `COC(=O)COc1cccc(NC(=O)CC(=O)c2cccc([N+](=O)[O-])c2)c1`, the T/C is 98 % of control (endpoint: mean survival time, dose: 100.0 mg/kg/injection, schedule: Q01DX009 (ip), vehicle: Klucel (hydroxypropylcellulose) (HPC)); 101 % of control under setting [2]; 97 % of control (endpoint: mean survival time, dose: 200.0 mg/kg/injection, schedule: Q01DX009 (ip), vehicle: Klucel (hydroxypropylcellulose) (HPC)); 98 % of control under setting [3]; 96 % of control (endpoint: mean survival time, dose: 400.0 mg/kg/injection, schedule: Q01DX009 (ip), vehicle: Klucel (hydroxypropylcellulose) (HPC)); 93 % of control under setting [4].
